According to ChEMBL document CHEMBL5042540, “Discovery of Pteridine-7(8H)-one Derivatives as Potent and Selective Inhibitors of Bruton's Tyrosine Kinase (BTK)” (J Med Chem, 2022):

Experiments:
[1] = in vivo; settings: Sprague-Dawley, rat, po, 10 mg/kg
[2] = in vivo; settings: Sprague-Dawley, rat, iv, 1 mg/kg
[3] = in vivo; settings: Sprague-Dawley, rat, iv, 1 mg/kg; remark: listed apart in the source
[4] = in vivo; settings: Sprague-Dawley, rat, iv, 1 mg/kg; remark: listed apart in the source
[5] = in vivo; settings: Sprague-Dawley, rat, iv, 1 mg/kg; remark: listed apart in the source
[6] = in vivo; settings: Sprague-Dawley, rat, po, 10 mg/kg; remark: listed apart in the source

C=CC(=O)Nc1cccc(-n2c(=O)c(C3CCCCC3)nc3cnc(Nc4cccc(OCCOC)c4)nc32)c1
AUC(0-t) [1]: 66.9 ng·h/mL
half-life [2]: 26.4 min
Vd [3]: 1.16 L/kg
clearance [4]: 58.2 mL/min/kg
AUC(0-t) [5]: 290 ng·h/mL
bioavailability [6]: 2.31%
